Patent publication US9757368B2, “Anti-inflammatory agents” (Resverlogix Corp., priority 2009, dated 2017)

Columns and labels:
hVCAM-1 mRNA = test: Quantification of hVCAM-1 mRNA in TNF-α-stimulated HUV-EC-C cells (real-time PCR); assay type: cell-based, human; set-up: key: Active: an active compound is one that causes a ≧20% inhibition in VCAM-1 mRNA at a concentration less than or equal to 10 μM; conditions: 1 h pretreatment, TNF-α 10 ng/mL, 24 h, VCAM-1 mRNA normalised to hCyclophilin, compound ≤10 μM
Method: In this example, hVCAM-1 mRNA in tissue culture cells was quantitated to measure the transcriptional inhibition of hVCAM when treated with a compound of the invention.
A human umbilical vein endothelial cell line (HUV-EC-C) was plated in a 96-well plate (5.0×10^3 cells/well) in 100 μL EGM complete media and incubated for 24 h prior to the addition of the compound of interest. The cells were pretreated for 1 h with the test compound in DMSO prior to stimulation with tumor necrosis factor-α (10 ng/mL). The cells were incubated for an additional 24 h before harvest. At time of harvest, the cells were rinsed in 200 μL PBS, and cell lysis solution (70 μL) was then added the cells for 10 min. mRNA was then prepared using the “mRNA Catcher PLUS plate” (Invitrogen), according to the protocol supplied.
(§1) The eluted mRNA was then used in a one-step quantitative real-time PCR reaction, using components of the UltraSense kit together with Applied Biosystems primer-probe mixes. 10 μL of template was amplified with 1.75 μL of hVCAM-1 primer-probe, and 1 μL of hCyclophilin primer probe, and the reaction was carried out in multiplex. Real-time PCR data was analyzed, normalizing the Ct values for hVCAM-1 to hCyclophilin, prior to determining the fold induction of each unknown sample, relative to the control.

hIL-6 mRNA = test: Quantification of hIL-6 mRNA in LPS-stimulated U937 macrophages (real-time PCR); assay type: cell-based, human; set-up: key: Active: an active compound is one that causes a ≧20% inhibition in IL-6 mRNA at a concentration less than or equal to 10 μM; conditions: U937 cells differentiated with PMA, 1 h pretreatment, LPS 1 μg/mL, 3 h; IL-6 mRNA normalised to hCyclophilin; compound ≤10 μM
Method: In this example, hIL-6 mRNA in tissue culture cells was quantitated to measure the transcriptional inhibition of hIL-6 when treated with a compound of the invention.
A human leukemic monocytic lymphoma cell line (U937) was plated (3.2×10^5 cells per well) in a 96-well plate in 100 μL RPMI 1640+10% FBS, and differentiated into macrophages with PMA (60 ng/mL) for 3 days prior to the addition of the compound of interest. The cells were pretreated for 1 h with the test compound in DMSO prior to stimulation with lipopolysaccharide from Escherichia coli at 1 μg/mL. The cells were incubated for 3 h before harvest. At the time of harvest, cells were rinsed in 200 μL PBS. Cell lysis solution (70 μL) was added the cells for 10 min, and mRNA was then prepared using the “mRNA Catcher PLUS plate” (Invitrogen), according to the protocol supplied.
as §1, with “mRNA isolated” for “mRNA”, “of IL-6” for “of hVCAM-1”, “for hIL-6” for “for hVCAM-1”

Row | Compound | Inhibition of VCAM-1 expression (hVCAM-1 mRNA) | Inhibition of IL-6 expression (hIL-6 mRNA)
1 | Cc1cc(-c2nc3cc(OCCN(C)C)ccc3c(=O)[nH]2)cc(C)c1O [Example 7, 7-(2-dimethylamino-ethoxy)-2-(4-hydroxy-3,5-dimethylphenyl)-3H-quinazolin-4-one] | Active | Active
2 | COc1cc(OC)c2c(=O)[nH]c(-c3cc(C)c(OCCN(C)C=O)c(C)c3)nc2c1 [Example 49, N-(2-(4-(5,7-dimethoxy-4-oxo-3,4-dihydroquinazolin-2-yl)-2,6-dimethylphenoxy)ethyl)-N-methylformamide] | – | Active
3 | COc1cc(OC)c2c(=O)[nH]c(-c3cc(C)c(OCCNS(=O)(=O)N(C)C)c(C)c3)nc2c1 [Example 50, N-(2-(4-(5,7-dimethoxy-4-oxo-3,4-dihydroquinazolin-2-yl)-2,6-dimethylphenoxy)ethyl)dimethylamino-N-sulfonamide] | – | Active
4 | COc1cc(OC)c2c(=O)[nH]c(-c3cc(C)c(OCCNc4nc(OC)cc(OC)n4)c(C)c3)nc2c1 [Example 55, 2-(4-(2-(4,6-dimethoxypyrimidin-2-ylamino)ethoxy)-3,5-dimethylphenyl)-5,7-dimethoxyquinazolin-4(3H)-one] | – | Active
5 | COc1cc(OC)c2c(=O)[nH]c(-c3cc(C)c(OCCNC(C)=O)c(C)c3)nc2n1 [Example 37, N-{2-[4-(5,7-dimethoxy-4-oxo-3,4-dihydro-pyrido[2,3-d]pyrimidin-2-yl)-2,6-dimethyl-phenoxy]-ethyl}-acetamide] | Inactive | Active
6 | COc1cc(OCCOCc2cccnc2)cc2nc(-c3cc(C)c(O)c(C)c3)[nH]c(=O)c12 [Example 6, 2-(4-hydroxy-3,5-dimethylphenyl)-5-methoxy-7-[2-(pyridin-3-ylmethoxy)ethoxy]-3H-quinazolin-4-one] | – | Active
7 | COc1cc(OC)c2c(=O)[nH]c(-c3ccc(OCCNC(C)=O)c(C)c3)nc2c1 [Example 45, N-(2-(4-(5,7-dimethoxy-4-oxo-3,4-dihydroquinazolin-2-yl)-2-methylphenoxy)ethyl)acetamide] | – | Active
8 | COc1cc(OC)c2c(=O)[nH]c(-c3cc(C)c(OCCNCC(F)(F)F)c(C)c3)nc2c1 [Example 40, 2-{3,5-dimethyl-4-[2-(2,2,2-trifluoro-ethylamino)-ethoxy]-phenyl}-5,7-dimethoxy-3H-quinazolin-4-one] | Active | Active
9 | COc1cc(OC)c2c(=O)[nH]c(-c3cc(C)c(OCCNC=O)c(C)c3)nc2c1 [Example 48, N-(2-(4-(5,7-dimethoxy-4-oxo-3,4-dihydroquinazolin-2-yl)-2,6-dimethylphenoxy)ethyl)formamide] | – | Active
10 | Cc1cc(-c2nc3ccc(N4CCOCC4)cc3c(=O)[nH]2)cc(C)c1OCCO [Example 12, 2-(4-(2-hydroxyethoxy)-3,5-dimethylphenyl)-6-morpholinoquinazolin-4(3H)-one] | – | Active
11 | Cc1cc(C)c2c(=O)[nH]c(-c3cc(C)c(OCCO)c(C)c3)nc2n1 [Example 14, 2-(4-(2-hydroxyethoxy)-3,5-dimethylphenyl)-5,7-dimethylpyrido[2,3-d]pyrimidin-4(3H)-one] | – | Active
12 | COc1cc(OC)c2c(=O)[nH]c(-c3cc(OC)c(CCCO)c(OC)c3)nc2c1 [Example 56, 2-[4-(3-hydroxy-propyl)-3,5-dimethoxyphenyl]-5,7-dimethoxy-3H-quinazolin-4-one] | – | Active
13 | COc1cc(OC)c2c(=O)[nH]c(-c3cc(C)c(OCCNC=O)c(C)c3)cc2c1 [Example 41, N-{2-[4-(6,8-dimethoxy-1-oxo-1,2-dihydro-isoquinolin-3-yl)-2,6-dimethyl-phenoxy]-ethyl}-formamide] | – | Active
14 | COc1cc(OC)c2c(=O)[nH]c(-c3cc(C)c(OCCNS(=O)(=O)C(C)C)c(C)c3)nc2c1 [Example 43, N-(2-(4-(5,7-dimethoxy-4-oxo-3,4-dihydroquinazolin-2-yl)-2,6-dimethylphenoxy)ethyl)propane-2-sulfonamide] | – | Active
15 | COc1cc(OCCN(C)C)c2c(=O)[nH]c(-c3cc(C)c(O)c(C)c3)nc2c1 [Example 1, 5-(2-dimethylamino-ethoxy)-2(4-hydroxy-3,5-dimethylphenyl)-7-methoxy-3H-quinazolin-4-one] | – | Active
16 | COCCOc1cc(OC)cc2nc(-c3cc(C)c(O)c(C)c3)[nH]c(=O)c12 [Example 2, 2-(4-hydroxy-3,5-dimethyl-phenyl)-7-methoxy-5-(2-methoxy-ethoxy)-3H-quinazolin-4-one] | – | Active
17 | Cc1cc(-c2nc3ccc(Nc4ccncc4)cc3c(=O)[nH]2)cc(C)c1O [Example 8, 2-(4-hydroxy-3,5-dimethyl-phenyl)-6-(pyridin-4-ylamino)-3H-quinazolin-4-one] | – | Active
18 | Cc1cc(-c2nc3cc(OC(C)C)cc(OC(C)C)c3c(=O)[nH]2)cc(C)c1OCCO [Example 16, 2-[4-(2-hydroxy-ethoxy)-3,5-dimethyl-phenyl]-5,7-diisopropoxy-3H-quinazolin-4-one] | – | Active
19 | COc1cc(OC)c2c(=O)[nH]c(-c3cc(C)c(OCCNc4cc(C)on4)c(C)c3)nc2c1 [Example 52, 2-(3,5-dimethyl-4-(2-(5-methylisoxazol-3-ylamino)ethoxy)phenyl)-5,7-dimethoxyquinazolin-4(3H)-one] | – | Active
20 | COc1cc2nc(-c3cc(C)c(OCCO)c(C)c3)[nH]c(=O)c2c(OC)c1CN1CCOCC1.Cl [Example 19, 2-[4-(2-hydroxy-ethoxy)-3,5-dimethylphenyl]-5,7-dimethoxy-6-morpholin-4-ylmethyl-3H-quinazolin-4-one hydrochloride] | – | Active
21 | COc1cc(OC)c2c(=O)[nH]c(-c3ccc(CCCO)c(OC)c3)nc2c1 [Example 57, 2-[4-(3-hydroxy-propyl)-3-methoxy-phenyl]-5,7-dimethoxy-3H-quinazolin-4-one] | – | Active
22 | COc1cc(OCCOCc2ccccc2)cc2nc(-c3ccc4oc(CO)cc4c3)[nH]c(=O)c12 [Example 24, 7-(2-benzyloxy-ethoxy)-2-(2-hydroxymethyl-benzofuran-5-yl)-5-methoxy-3H-quinazolin-4-one] | – | Active
23 | COc1cc(OC)c2c(=O)[nH]c(-c3cc(C)c(OCCNc4ncccn4)c(C)c3)nc2c1 [Example 53, 2-(3,5-dimethyl-4-(2-(pyrimidin-2-ylamino)ethoxy)phenyl)-5,7-dimethoxyquinazolin-4(3H)-one] | – | Active
24 | COc1cc(OC)c2c(=O)[nH]c(-c3cc(C)c(OCC(=O)NCc4ccccc4)c(C)c3)nc2c1 [Example 27, N-benzyl-2-[4-(5,7-dimethoxy-4-oxo-3,4-dihydroquinazolin-2-yl)-2,6-dimethylphenoxy]acetamide] | – | Active
25 | COc1cc(OC)c2c(=O)[nH]c(-c3cc(C)c(OCCOCc4ccccc4)c(C)c3)nc2n1 [Example 13, 2-(4-(2-(benzyloxy)ethoxy)-3,5-dimethylphenyl)-5,7-dimethoxypyrido[2,3-d]pyrimidin-4(3H)-one] | – | Active
26 | Cc1cc(-c2nc3ccc(CNS(C)(=O)=O)cc3c(=O)[nH]2)cc(C)c1O [Example 11, N-((2-(4-hydroxy-3,5-dimethylphenyl)-4-oxo-3,4-dihydroquinazolin-6-yl)methyl)methanesulfonamide] | – | Active
27 | COc1cc(OC)c2c(=O)[nH]c(-c3cc(C)c(OCCN(C)C)c(C)c3)nc2c1 [Example 46, 2-(4-(2-(dimethylamino)ethoxy)-3,5-dimethylphenyl)-5,7-dimethoxyquinazolin-4(3H)-one] | – | Active
28 | COc1cc(OC)c2c(=O)[nH]c(-c3cc(C)c(OCCNc4ccon4)c(C)c3)nc2c1 [Example 54, 2-(4-(2-(isoxazol-3-ylamino)ethoxy)-3,5-dimethylphenyl)-5,7-dimethoxyquinazolin-4(3H)-one] | – | Active
